One molecule from PMC5219908, “Expression, purification and kinetic characterization of recombinant benzoate dioxygenase from Rhodococcus ruber UKMP-5M” (Molecular Biology Research Communications, 2016) can be followed below.

The subject of this test is T1, benzoate dioxygenase.
T1 construct: gene benA; benA amplicon 642 bp (about 213 residues, much shorter than a usual BenA of about 450), His-tag from pET28b, E. coli BL21(DE3), ion exchange; primers encode start MELDRGPAG and end RDVPVYPF; no reductase or beta subunit added
The test can be described thus: NADH oxidation at […] nm, Lineweaver-Burk. Type of test: biochemical, Rhodococcus ruber. The following applies: 25 °C, 3 min; reduced nicotinamide cofactor (NADH; reagent list prints the phosphate form), FeSO4; substrate range printed as 0.1-1.2 mM, far above the Km; pH of kinetic assay not stated.

With `O=C(O)c1ccccc1` [sodium benzoate], the Km (as a rule, the substrate concentration at which the rate is half of its maximum) is 5.58 µM.
